Measurements from BindingDB's records for doi:10.1021/jm701266y (Lund University, 2008).

Biological target: Galectin-3 (Homo sapiens, UniProt P17931)
Experiment: Fluorescence Polarization Assay
Details: pH 7.2; 24 °C
Protocol: In fluorescence polarization measurements, a fluorescent probe was excited with plane-polarized light and the degree of polarization remaining in the emitted light is measured. When the probe is bound to protein, it rotates slower than when free, and the remaining fluorescence polarization is higher. The fluorescent anisotropy value for a probe-protein mixture is the average of the value for bound and free probe. For the direct binding asaay, the data (anisotropy, A in mA vs galectin concentration, [G] in uM) were fitted to a simplified formula to obtain Kd.

Galectin-3, sequence (P17931 whole entry): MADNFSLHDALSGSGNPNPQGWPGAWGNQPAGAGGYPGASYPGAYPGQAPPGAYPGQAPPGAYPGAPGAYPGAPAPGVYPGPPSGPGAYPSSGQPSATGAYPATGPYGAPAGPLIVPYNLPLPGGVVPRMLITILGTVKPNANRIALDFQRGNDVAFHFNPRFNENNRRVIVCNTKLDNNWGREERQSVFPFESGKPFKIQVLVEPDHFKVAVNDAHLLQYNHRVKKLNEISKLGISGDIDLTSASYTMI

- Kd: 380 µM
SMILES: CS[C@@H]1O[C@H](CO)[C@H](O)[C@H](NC(=O)c2ccc(C)cc2)[C@H]1OCc1ccccc1 [N-[(2S,3R,4S,5R,6R)-3-(benzyloxy)-5-hydroxy-6-(hydroxymethyl)-2-(methylsulfanyl)oxan-4-yl]-4-methylbenzamide]
